According to patent publication US20230235397A1, “METHODS FOR CLASSIFICATION AND TREATMENT OF PSYCHOTIC DISORDER SUBJECTS” (CENTRE HOSPITALIER UNIVERSITAIRE VAUDOIS (CHUV), priority 2019, published 2023):

Test system: Gclm-KO+GBR mice
Assay: MitoQ treatment of Gclm-KO+GBR mice (oxidative stress model), markers in anterior cingulate cortex
Type: in vivo
Description: Treatment with MitoQ (P21-P40) in Gclm-KO mice treated with GBR12909 normalizes NIX, FUNDC1 and LC3B expression levels as well as miR-137 expression intensity when compared to values observed for wild-type mice (FIG. 7). […] Thus, MitoQ has been unexpectedly found to be useful in reversing the miR-137 overexpression, mitophagy and parvalbumin interneuron impairment induced by oxidative stress.
Example 9 relates to an animal model of oxidative stress. Oxidative stress elicits mitophagy in the anterior cingulated cortex (ACC) of Gclm-KO mice (transgenic mice carrying permanent defect in glutathione GSH synthesis). […] Because extranuclear localization of 8-oxo-dG labeling was observed, it could be surmised that mitochondrial DNA (mtDNA) was affected. […] In comparison with WT mice (Gclm-WT+PBS, wherein PBS refers to phosphate-buffered saline, a common buffer used in these experiments as vehicle), levels of the mitophagy receptors NIX and FUNDC1 and of the autophagosome LC3B were reduced in the ACC of Gclm-KO mice (Gclm-KO+PBS, at P40). […] Taken together, these observations are consistent with an oxidative stress-induced mitophagy deficit in prefrontal parvalbumin interneurons.
It has been shown that miR-137 plays a functional role in modulating synaptic function and in regulating the expression of the NIX and FUNDC1 mitophagy receptors.
In view of the detrimental effects of oxidative stress on integrity of parvalbumin interneurons, miR-137 expression level as well as mitophagy during preweaning and pubertal stages of development, it was evaluated whether MitoQ treatment, a selective mitochondria targeted-antioxidant, could rescue these deficits in young KO mice. Treatment with MitoQ (P21-P40) in Gclm-KO+GBR mice normalized NIX, FUNDC1 and LC3B expression levels as well as miR-137 expression intensity, when compared to WT values (FIG. 7). […] Thus, MitoQ can reverse the oxidative stress induced miR-137 overexpression, mitophagy and parvalbumin interneuron impairment, highlighting that the upregulation of miR-137 and subsequent mitophagy defect constitutes the molecular mechanism underlying the oxidative stress-induced parvalbumin interneuron impairment.

[1] = ACC of Gclm-KO+GBR animals, following treatment with MitoQ
[2] = MitoQ P21-P40, Gclm-KO+GBR mice, ACC, compared to WT values (FIG. 7)

With COC1=C(OC)C(=O)C(CCCCCCCCCC[PH](c2ccccc2)(c2ccccc2)c2ccccc2)=C(C)C1=O [MitoQ, mitoquinone] the “abnormalities in cell body numbers of parvalbumin interneurons” value [1] was “restored to WT levels”, the “staining intensity of parvalbumin interneuron processes” value [1] was “restored to WT levels” and the FUNDC1 expression level [2] was “normalized”. For the same compound, the LC3B expression level [2] was “normalized”, the NIX expression level [2] was “normalized” and the miR-137 expression intensity [2] was “normalized”.
